Patent US20220119354A1, “DIAMINO-SUBSTITUTED PYRIDINES AND PYRIMIDINES AS HERBICIDES” (FMC Corporation, priority 2019, published 2022)

Tests used:
Format in all cases: in vivo
[1] = test system: galium (catchweed bedstraw, Galium aparine); experiment: Test A postemergence, galium; settings: 0 to 100 scale, 0 no effect, 100 complete control
Procedure, shortened: (§1)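 Compound, in a non-phytotoxic solvent blend containing surfactant, is sprayed onto soil immediately after sowing or onto young plants (one- to two-leaf, 2–10 cm). After roughly 10 d under greenhouse conditions, injury is judged by eye relative to untreated plants on a 0–100 control scale.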

[2] = test system: barnyardgrass (Echinochloa crus-galli); experiment: Test B flooded paddy test, barnyardgrass; settings: Flood, 250 g ai/ha, applied to paddy water, 2-leaf stage, visual evaluation after 13 to 15 d
Procedure, shortened: (§2)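 Pots flooded to 3 cm above the soil when treated, with test compound added straight to the water and the flood maintained. Treated plants were at the 2-leaf stage and stayed 13–15 d in greenhouse. Response versus untreated controls scored visually from 0 (no effect) to 100 (complete control).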

[3] = test system: pigweed (Amaranthus retroflexus); experiment: Test A preemergence, pigweed; settings: 0 to 100 scale, 0 is no effect, 100 is complete control
Procedure, shortened: as §1

kochia (Kochia scoparia) [4] = experiment: Test A preemergence, kochia; settings: 0 to 100 scale, 0 is no effect, 100 is complete control
Procedure, shortened: as §1

[5] = test system: pigweed (Amaranthus retroflexus); experiment: Test A postemergence, pigweed; settings: 0 to 100 scale, 0 no effect, 100 complete control
Procedure, shortened: as §1

[6] = test system: foxtail, giant (Setaria faberii); experiment: Test A preemergence, giant foxtail; settings: 0 to 100 scale, 0 is no effect, 100 is complete control
Procedure, shortened: as §1

[7] = test system: ryegrass, Italian (Lolium multiflorum); experiment: Test A postemergence, Italian ryegrass; settings: 0 to 100 scale, 0 no effect, 100 complete control
Procedure, shortened: as §1

[8] = test system: barnyardgrass (Echinochloa crus-galli); experiment: Test A preemergence, barnyardgrass; settings: 0 to 100 scale, 0 is no effect, 100 is complete control
Procedure, shortened: as §1

kochia (Kochia scoparia) [9] = experiment: Test A postemergence, kochia; settings: 0 to 100 scale, 0 no effect, 100 complete control
Procedure, shortened: as §1

[10] = test system: ducksalad (Heteranthera limosa); experiment: Test B flooded paddy test, ducksalad; settings: Flood, 250 g ai/ha, applied to paddy water, 2-leaf stage, visual evaluation after 13 to 15 d
Procedure, shortened: as §2

[11] = test system: ryegrass, Italian (Lolium multiflorum); experiment: Test A preemergence, Italian ryegrass; settings: 0 to 100 scale, 0 is no effect, 100 is complete control
Procedure, shortened: as §1

[12] = test system: wheat (Triticum aestivum); experiment: Test A postemergence, wheat; settings: 0 to 100 scale, 0 no effect, 100 complete control
Procedure, shortened: as §1

rice (Oryza sativa) = experiment: Test B flooded paddy test, rice; settings: Flood, 250 g ai/ha, applied to paddy water, 2-leaf stage, visual evaluation after 13 to 15 d
Procedure, shortened: as §2

[13] = test system: foxtail, giant (Setaria faberii); experiment: Test A postemergence, giant foxtail; settings: 0 to 100 scale, 0 no effect, 100 complete control
Procedure, shortened: as §1

corn (Zea mays) = experiment: Test A postemergence, corn; settings: 0 to 100 scale, 0 no effect, 100 complete control
Procedure, shortened: as §1

[14] = test system: ragweed (common ragweed, Ambrosia elatior); experiment: Test A postemergence, ragweed; settings: 0 to 100 scale, 0 no effect, 100 complete control
Procedure, shortened: as §1

[15] = test system: blackgrass (Alopecurus myosuroides); experiment: Test A postemergence, blackgrass; settings: 0 to 100 scale, 0 no effect, 100 complete control
Procedure, shortened: as §1

[16] = test system: barnyardgrass (Echinochloa crus-galli); experiment: Test A postemergence, barnyardgrass; settings: 0 to 100 scale, 0 no effect, 100 complete control
Procedure, shortened: as §1

[17] = test system: ragweed (common ragweed, Ambrosia elatior); experiment: Test A preemergence, ragweed; settings: 0 to 100 scale, 0 is no effect, 100 is complete control
Procedure, shortened: as §1

[18] = test system: sedge, umbrella (small-flower umbrella sedge, Cyperus difformis); experiment: Test B flooded paddy test, umbrella sedge; settings: Flood, 250 g ai/ha, applied to paddy water, 2-leaf stage, visual evaluation after 13 to 15 d
Procedure, shortened: as §2

Compound	Plant response rating, Galium ([1]; 125 g ai/ha)	Plant response rating, Galium ([1]; 500 g ai/ha)	Plant response rating, Barnyardgrass (0 to 100 scale, 0 is no effect, 100 is complete control) [2]	Pigweed plant response rating ([3]; 125 g ai/ha)	Pigweed plant response rating ([3]; 500 g ai/ha)	Kochia plant response rating (kochia (Kochia scoparia) [4]; 125 g ai/ha)	Kochia plant response rating (kochia (Kochia scoparia) [4]; 500 g ai/ha)	Plant response rating, Pigweed ([5]; 125 g ai/ha)	Plant response rating, Pigweed ([5]; 500 g ai/ha)	Foxtail, Giant plant response rating ([6]; 125 g ai/ha)	Foxtail, Giant plant response rating ([6]; 500 g ai/ha)	Plant response rating, Ryegrass, Italian ([7]; 125 g ai/ha)	Plant response rating, Ryegrass, Italian ([7]; 500 g ai/ha)	Barnyardgrass plant response rating ([8]; 125 g ai/ha)	Barnyardgrass plant response rating ([8]; 500 g ai/ha)	Plant response rating, Kochia (kochia (Kochia scoparia) [9]; 125 g ai/ha)	Plant response rating, Kochia (kochia (Kochia scoparia) [9]; 500 g ai/ha)	Plant response rating, Ducksalad (0 to 100 scale, 0 is no effect, 100 is complete control) [10]	Ryegrass, Italian plant response rating ([11]; 125 g ai/ha)	Ryegrass, Italian plant response rating ([11]; 500 g ai/ha)	further results
Cc1nc(NC(C)c2cc3ccccc3s2)nc(N)c1C(F)(F)F (stereo not drawn) [Compound 105]	90	90	0	100	100	90	100	0	60	40	100	100	100	40	60	80	100	0	20	90	Plant response rating, Wheat ([12]; 125 g ai/ha): 0; Plant response rating, Wheat ([12]; 500 g ai/ha): 0; Plant response rating, Rice (0 to 100 scale, 0 is no effect, 100 is complete control) (rice (Oryza sativa)): 0; Plant response rating, Foxtail, Giant ([13]; 125 g ai/ha): 0; Plant response rating, Foxtail, Giant ([13]; 500 g ai/ha): 60; Plant response rating, Corn (corn (Zea mays); 125 g ai/ha): 0; Plant response rating, Corn (corn (Zea mays); 500 g ai/ha): 0; Plant response rating, Ragweed ([14]; 125 g ai/ha): 70; Plant response rating, Ragweed ([14]; 500 g ai/ha): 100; Plant response rating, Blackgrass ([15]; 125 g ai/ha): 0; Plant response rating, Blackgrass ([15]; 500 g ai/ha): 0; Plant response rating, Barnyardgrass ([16]; 125 g ai/ha): 30; Plant response rating, Barnyardgrass ([16]; 500 g ai/ha): 60; Ragweed plant response rating ([17]; 125 g ai/ha): 100; Ragweed plant response rating ([17]; 500 g ai/ha): 100; Plant response rating, Sedge, Umbrella (0 to 100 scale, 0 is no effect, 100 is complete control) [18]: 0
Cc1nc(NC(C)c2coc3ccccc23)nc(N)c1C(F)(F)F (stereo not drawn) [Compound 106]	70	80	0	30	100	80	90	70	100	0	50	0	0	0	0	80	90	0	0	30	Plant response rating, Wheat ([12]; 125 g ai/ha): 0; Plant response rating, Wheat ([12]; 500 g ai/ha): 0; Plant response rating, Rice (0 to 100 scale, 0 is no effect, 100 is complete control) (rice (Oryza sativa)): 0; Plant response rating, Foxtail, Giant ([13]; 125 g ai/ha): 0; Plant response rating, Foxtail, Giant ([13]; 500 g ai/ha): 0; Plant response rating, Corn (corn (Zea mays); 125 g ai/ha): 0; Plant response rating, Corn (corn (Zea mays); 500 g ai/ha): 0; Plant response rating, Ragweed ([14]; 125 g ai/ha): 20; Plant response rating, Ragweed ([14]; 500 g ai/ha): 100; Plant response rating, Blackgrass ([15]; 125 g ai/ha): 0; Plant response rating, Blackgrass ([15]; 500 g ai/ha): 0; Plant response rating, Barnyardgrass ([16]; 125 g ai/ha): 0; Plant response rating, Barnyardgrass ([16]; 500 g ai/ha): 30; Ragweed plant response rating ([17]; 125 g ai/ha): 60; Ragweed plant response rating ([17]; 500 g ai/ha): 100; Plant response rating, Sedge, Umbrella (0 to 100 scale, 0 is no effect, 100 is complete control) [18]: 0
CC(Nc1ncc(S(C)(=O)=O)c(N)n1)c1cc2ccccc2s1 (stereo not drawn) [Compound 107]	70	80	45	60	100	80	100	80	100	30	100	0	40	20	100	50	90	70	50	90	Plant response rating, Wheat ([12]; 125 g ai/ha): 0; Plant response rating, Wheat ([12]; 500 g ai/ha): 30; Plant response rating, Rice (0 to 100 scale, 0 is no effect, 100 is complete control) (rice (Oryza sativa)): 0; Plant response rating, Foxtail, Giant ([13]; 125 g ai/ha): 10; Plant response rating, Foxtail, Giant ([13]; 500 g ai/ha): 60; Plant response rating, Corn (corn (Zea mays); 125 g ai/ha): 0; Plant response rating, Corn (corn (Zea mays); 500 g ai/ha): 30; Plant response rating, Ragweed ([14]; 125 g ai/ha): 40; Plant response rating, Ragweed ([14]; 500 g ai/ha): 100; Plant response rating, Blackgrass ([15]; 125 g ai/ha): 0; Plant response rating, Blackgrass ([15]; 500 g ai/ha): 80; Plant response rating, Barnyardgrass ([16]; 125 g ai/ha): 20; Plant response rating, Barnyardgrass ([16]; 500 g ai/ha): 100; Ragweed plant response rating ([17]; 125 g ai/ha): 100; Ragweed plant response rating ([17]; 500 g ai/ha): 100; Plant response rating, Sedge, Umbrella (0 to 100 scale, 0 is no effect, 100 is complete control) [18]: 75
